Measured values taken from patent publication US8349834B2, “Dioxolane derivates for the treatment of cancer” (Clavis Pharma AS, priority 2005, dated 2013).
Like-named read-outs stand apart in the source and are kept apart here.

Assays:
HeLa/mut cells = test: MTT growth inhibition in cervical cancer cell line HeLa/mut; type: cell-based, human; settings: for IC50: 4 days incubation, MTT, read-out: IC50 μM ± Standard Deviation
Protocol: The cervical cancer cell line HeLa/mut was seeded, 5×10^3 cells per well, in 96-well-plates. The medium was RMPI 1640 with 2 mM Glutamine and 10% Foetal Bovine Serum. 24 hours later the test compounds were added in 6 concentrations. The cells were incubated for 4 days. The MTT solution was added to each well and incubated for 4 hours. The samples were read by an ELISA reader at 540 nm. The IC50 values were determined from growth curves. The test compounds were troxacitabine elaidic amid, troxacitabine petroselaidoate, troxacitabine-petroselaidic amide and troxacitabine γ-linolenoate.

U937 cells [1] = test: CellTiter 96 MTS cytotoxicity in U937 cells; settings: U937, 48 hours; for IC50: read-out: U937 cells IC50 μM ± SD, MTS
Protocol: (§1) The U937 and THP-1 cell lines were seeded, 20 000 cells per well, in 96-well-plates. 50 μl medium ( ) was added to each well. At the same time test compounds were added in 5 different concentrations and incubated for 48 hours. The CellTiter 96® Non-Radioactive cell proliferation assay (Promega) was used to study the cytotoxicity of test in these cells. This assay is a colorimetric method for determining the number of viable cells in proliferation or chemosensitivity assays. […] MTS is bioreduced by cells into a formazan product that is soluble in tissue culture medium. The absorbance of the formazan at 490 nm can be measured directly from 96 well assay plates without additional processing.

THP-1 cells [2] = test: CellTiter 96 MTS cytotoxicity in THP-1 cells; settings: THP-1, 48 hours; for IC50: read-out: THP-1 cells IC50 μM ± SD, MTS
Protocol: as §1

U937 cells [3] = system: U937 cells
Protocol: as §1

THP-1 cells [4] = system: THP-1 cells
Protocol: as §1

several cell lines = settings: prior art references; cited from earlier work
MaTu/Adr cells = test: in-vitro activity in breast tumour line MaTu and adriamycin resistant subline MaTu/Adr; type: cell-based; settings: MaTu/Adr vs. MaTu

SMILES: CCCCC/C=C\C/C=C\C/C=C\CCCCC(=O)OC[C@H]1OC[C@@H](n2ccc(N)nc2=O)O1 [troxacitabine γ-linolenoate, Troxacitabine 2′-hydroxymethyl-6,9,12-linolenoate]
- IC50 (HeLa/mut cells): 0.83 ± 0.59 µM
- IC50 (U937 cells [1]): 0.09 µM
- IC50 (THP-1 cells [2]): 0.16 µM

SMILES: CCCCCCCC/C=C/CCCCCCCC(=O)Nc1ccn(C2COC(CO)O2)c(=O)n1 (stereo not drawn) [α-troxacitabine N4-elaidic acid amide, reference compound]
- IC50 (U937 cells [1]): 10 µM

SMILES: CCCCCCCCCCC/C=C\CCCCC(=O)Nc1ccn([C@@H]2CO[C@H](CO)O2)c(=O)n1 [troxacitabine-petroselinic amide, Troxacitabine N^4-petroselinic acid amide]
- cytotoxicity in words (U937 cells [1]): even more active than the other compounds
- cytotoxicity in words (THP-1 cells [2]): even more active than the other compounds

SMILES: CCCCC/C=C\C/C=C\C/C=C\CCCCC(=O)Nc1ccn([C@@H]2CO[C@H](CO)O2)c(=O)n1 [Troxacitabine N^4-6,9,12-linolenic acid amide]
- cytotoxicity in words (U937 cells [3]): even more active than the other compounds
- cytotoxicity in words (THP-1 cells [4]): even more active than the other compounds
- IC50 (U937 cells [1]): 0.007 µM
- IC50 (THP-1 cells [2]): 0.085 µM

SMILES: CCCCCCCC/C=C/CCCCCCCC(=O)OC[C@H]1OC[C@@H](n2ccc(N)nc2=O)O1 [Troxacitabine-5′-elaidic acid ester, reference compound]
- IC50 (U937 cells [1]): 0.06 µM
- IC50 (THP-1 cells [2]): 0.06 µM

SMILES: CCCCCCCCC=CCCCCCCCC(=O)Nc1ccn(C2COC(CO)O2)c(=O)n1 (stereo not drawn) [oleic acid amid derivative]
- times better than the elaidic counterpart (several cell lines): 2 to 5 times

SMILES: CCCCCCCC/C=C/CCCCCCCC(=O)Nc1ccn([C@@H]2CO[C@H](CO)O2)c(=O)n1 [troxacitabine elaidic-amide, Troxacitabine N^4-Elaidic Acid Amide]
- resistance factor (MaTu/Adr cells): 6

SMILES: CCCCCCCCCCC/C=C\CCCCC(=O)OC[C@H]1OC[C@@H](n2ccc(N)nc2=O)O1 [Troxacitabine-2′-hydroxymethyl-petroselinoate]
- cytotoxicity in words (U937 cells [1]): even more active than the other compounds
- IC50 (U937 cells [1]): 0.007 µM
- cytotoxicity in words (THP-1 cells [2]): even more active than the other compounds
- IC50 (THP-1 cells [2]): 0.09 µM

SMILES: CCCCCCCCCCC/C=C/CCCCC(=O)Nc1ccn([C@@H]2CO[C@H](CO)O2)c(=O)n1 [troxacitabine-petroselaidic amide, Troxacitabine N^4-petroselaidic acid amide]
- IC50 (HeLa/mut cells): 0.15 ± 0.07 µM
- IC50 (U937 cells [1]): 0.02 µM
- IC50 (THP-1 cells [2]): 0.08 µM

SMILES: CCCCCCCCC=CCCCCCCCC(=O)OCC1OCC(n2ccc(N)nc2=O)O1 (stereo not drawn) [Troxacitabine-5′-oleate, reference compound]
- IC50 (U937 cells [1]): 0.09 µM
- IC50 (THP-1 cells [2]): 0.07 µM

SMILES: CCCCCCCCCCC/C=C/CCCCC(=O)OC[C@H]1OC[C@@H](n2ccc(N)nc2=O)O1 [troxacitabine petroselaidoate, Troxacitabine-2′-hydroxymethyl-petroselaidoate]
- IC50 (HeLa/mut cells): 0.18 ± 0.12 µM
- fold more active than troxacitabine elaidic amid (HeLa/mut cells; relative to troxacitabine elaidic amide): 20 fold
- IC50 (U937 cells [1]): 0.08 µM
- IC50 (THP-1 cells [2]): 0.06 µM
